Literature values in patent publication US20110168623A1, “FEED SIDE PASSAGE MATERIAL AND SPIRAL SEPARATION MEMBRANE ELEMENT” (priority 2008, published 2011).

Tests used:
[1] = system: Pseudomonas aeruginosa
[2] = system: Aspergillus niger
[3] = system: Candida yeast

## Oc1cc(Cl)ccc1Oc1ccc(Cl)cc1Cl [triclosan, 2,4,4′-trichloro-2′-hydroxy diphenyl ether]
[1]
  antibacterial effect on Pseudomonas aeruginosa: small or comparatively small antibacterial effect
[2]
  antibacterial effect on Aspergillus niger: small or comparatively small antibacterial effect
[3]
  antibacterial effect on Candida yeast: small or comparatively small antibacterial effect
